Source: patent US9944721B2, “Polysialic acid and use for treatment of neurodegenerative and neuroinflammatory diseases” (RHEINISCHE FRIEDRICH-WILHELMS UNIVERSITÄT BONN, priority 2013, dated 2018)

How the values were obtained:
[1] = system: human microglial cells stimulated with fibrillary amyloid-β1-42; test: Amyloid-β1-42 induced superoxide release of human microglia (DHE); format: cell-based; details: Aβ 10 μM
Description: The human microglial cell line was treated with human Alzheimer's disease associated fibrillary amyloid-beta peptide (Aβ) to mimic inflammatory signalling of Alzheimer's disease brain tissue. To obtain fibrillary components of Aβ, the synthetic amyloid-beta peptide (amyloid-beta 1-42, Bachem/Brucker, 10 μM) was preincubated at 37° C. for at least three days. The human microglial cells were treated with the different concentrations of 0.15 μM, 0.5 μM, or 1.5 μM of low molecular weight polysialic acid (PSA-20) for 60 minutes followed by incubation for 15 minutes with fibrillary Aβ. Then, 30 μM dihydroethidium (DHE) was added and incubated at 37° C. for 15 minutes for measurement of superoxide anion radical production. Cells were fixed with 4% paraformaldehyde plus 0.25% glutaraldehyde and analyzed by confocal microscopy. For the quantification of DHE staining intensity six pictures of each experiment were obtained and analyzed by ImageJ software (NIH). The background was subtracted and the mean values of the staining intensities were compared. Cells were fixed and the intensity of DHE was quantified by confocal microscopy.
To confirm the specificity of the DHE measurement, the determination of the effect of PSA-20 on superoxide production in human microglial cells was repeated. As a control the radical scavenger Trolox, a water-soluble vitamin E analogue, was added to the system. Furthermore, as additional control superoxide dismutase-1 (SOD1) was added into the medium. Superoxide should no longer be detectable by the DHE dye after successful transformation of superoxide by SOD1.
Human microglial cells were cultured alone and production of reactive oxygen species was analyzed after treatment with the Alzheimer's disease plaques associated fibrillary amyloid-β1-42. To measure the relative production of superoxide by the microglial cells, cells were plated in 4-chamber culture dishes. After 24 hours human microglial cells were treated with 1.5 μM of low molecular weight polysialic acid (PSA-20) for 60 minutes followed by incubation for 15 minutes with 10 μM fibrillary amyloid-β1-42. Control dishes were treated with either 1.5 μM PSA-20 and 40 μM Trolox or 1.5 μM PSA-20 and 20 μg/ml superoxide dismutase-1 (SOD1, Serva). Then, cells were washed 2-times with Krebs-HEPES-buffer and afterwards incubated for 15 minutes with 30 μM DHE solution (diluted in Krebs-HEPES-buffer). Finally cells were washed 2-times with Krebs-HEPES-buffer and fixed for 15 minutes with 0.25% glutaraldehyde and 4% PFA. In total, six images were randomly collected per experimental group by confocal laser scanning microscopy (Fluoview 1000, Olympus). All cells of the collected images were analyzed by Image J software (NIH).

[2] = system: humanized Siglec-11 transgenic mice; test: Septic encephalopathy model: TNF-alpha gene transcripts after repeated systemic LPS; format: in vivo; details: 4x LPS plus 4x PSA-20 1 μg per gram body weight i.p., 24 hours after last application
Description: Humanized Siglec-11 transgenic mice (Wang Y, 2009, dissertation, University Bonn, uniform resource name: urn:nbn:de:hbz:5N-18095) expressing human Siglec-11 under the Iba1-promoter in microglia and wildtype littermate control mice were used in this experiment. For gene transcript analysis, RNA was isolated from brains with Trizol followed with the RNeasy Mini Kit (Qiagen). Reverse transcription of RNA was performed with SuperScript III reverse transcriptase (Invitrogen) and hexamer random primers (Roche Molecular Biochemicals). Quantitative RT-PCR with specific oligonucleotides was performed with SYBR Green PCR Master Mix (Applied Biosystems) using the ABI 5700 Sequence Detection System (Perkin Elmer) and amplification protocol for the ABI 5700 Sequence Detection System. […] Results were analyzed with the ABI 5700 Sequence Detection System v.1.3 after establishing the reaction efficiency for each primer pair. Quantification using the delta-CT method was carried out.
Mice were either treated intraperitoneally with 4× lipopolysaccharide (LPS from Salmonella abortus equi S-form (ENZO Life Science), 1 μg per gram body weight) or 4×LPS (1 μg per gram body weight) plus 4×PSA-20 (1 μg per gram body weight) or 4×PBS. […] Mice were analyzed 24 hours after the last application.
Gene transcripts for TNF-alpha were determined from the total brain tissue by qRT-PCR at 24 hours after the last application.

[3] = system: humanized Siglec-11 transgenic mice; test: Experimental autoimmune encephalomyelitis (animal model of multiple sclerosis); format: in vivo
Description: Experimental autoimmune encephalomyelitis was induced in humanized Siglec-11 transgenic mice (humanized Siglec-11 mouse) and littermate control mice (normal control mice). Therefore, adult 6-8 weeks-old female humanized Siglec-11 transgenic mice (Wang et al. 2009, dissertation, University Bonn, uniform resource name: urn:nbn:de:hbz:5N-18095) and littermate control mice were immunized with 100 μg of myelin oligodendrocyte glycoprotein MOG (amino acids 35-55; Seqlab) in […] Freunds adjuvant (both DIFCO; BD GmbH, Heidelberg, Germany). Pertussis toxin (200 ng; List Biological Laboratories, Epsom, UK) was injected on days 0 and 2 of immunization. Clinical signs were scored as following: 0, no clinical signs; 1, complete limp tail; 2, complete limp tail and weakness of hindlimbs; 3, paraparesis of at least one hindlimb; 4, complete hindlimb paraparesis and weakness of forelimbs; and 5, fore- and hindlimb paralysis or moribund. Only mice having disease onset (clinical score of >=1) until day 20 were used for experiments.
Low molecular weight PSA-20 (1 μg per g body weight) was applied intraperitoneally into the mice on the day of disease onset (clinical score at least 1) and daily on the following three consecutive days. […] The cumulative disease score from the first day of treatment until day 25 was determined.

human microglia = test: Microglial phagocytosis of fluorescently labeled neural debris; format: cell-based; details: 1 hour pre-incubation, untreated 32%+/−0.02
Description: The human microglia were challenged with fluorescently labeled neural debris and the uptake of the debris into the cells was determined by confocal microscopy and 3D-reconstruction.
To receive debris, neural stem cells were incubated with 40 nM okadaic acid (Sigma) for 24 hours. Then, cellular debris was collected and centrifuged. Debris was washed with PBS and stained with “Dil Derivatives for Long-Term Cellular Labeling” Molecular Probes (Invitrogen) according to the supplier's manual. Microglial cells were pre-incubated for 1 hour with concentration of 0.15 μM, 0.5 μM or 1.5 μM PSA-20 followed by 1 hour of incubation with 5 μg/ml prestained neural debris. Cells were fixed and incubated with an anti-iba1 antibody (Wako, Japan) followed by a secondary Alexa488-conjugated antibody (Molecular probes). For analysis images were randomly scanned and 3D-reconstructions were obtained by a confocal laser scanning microscope (Fluoview 1000, Olympus). To determine the ratio of cells having ingested fluorescently labeled material, six images per experiment group were obtained and all cells on the images were quantified using Image J software (NIH).

poly-(α(2→8)Neu5Ac)n [PSA-20]
Aβ induced superoxide release ([1]; 1.5 μM, 60 minutes pre-treatment, FIG. 4A): reduced | amyloid-β1-42 induced stimulation of the superoxide production ([1]; repeat, FIG. 4B, PSA-20 1.5 μM, Trolox 40 μM, SOD1 20 μg/ml): prevented | gene transcripts for TNF-alpha in the spleen [2]: No change | gene transcription levels of TNF-alpha in the brain tissue ([2]; Siglec-11 transgenic mice): reduced gene transcription levels | clinical signs (clinical score) ([3]; Siglec-11 transgenic mice, 1 μg per g body weight i.p. from disease onset, 4 days, from day 14 onwards, FIG. 8A): improved clinical signs | cumulative disease score ([3]; first day of treatment until day 25, FIG. 8B): improved the clinical signs of disease | percentage of microglia having ingested neural debris (human microglia; 0.5 μM): 25%+/−0.02 | percentage of microglia having ingested neural debris (human microglia; 1.5 μM): 22%+/−0.01
